# Assay results taken from patent US12390423B2 (priority 2019, dated 2025).
# Assays:
# [1] = tested on: INS-1 (832/13) cells; assay: High resolution respirometry in INS-1 (832/13) cells; type: cell-based, rat
# Description: Cells treated with test compounds for 24 h were trypsinized, counted, and resuspended in phosphate buffer saline (PBS). High-resolution O2 consumption measurements were conducted in 2 ml of respiration medium (PBS, pH 7.5, stir speed 750 rpm) using the Oroboros Oxygraph-2k (Oroboros Instruments, Corp., Innsbruck, Austria) set to 37° C. with a gain of 2 in both chambers. Briefly, after the injection of 5 million treated INS-1 (832/13) cells or C2C12 myotubes per chamber, basal respiration was measured once steady-state respiratory flux was obtained; this represents coupled respiration fueled by available substrates from the incubation with test compounds. Uncoupled respiration was then measured following addition of the ATP synthase inhibitor oligomycin (0.25 μM). This was followed by measuring maximal respiratory rate by stepwise titration of carbonyl cyanide p-trifluoromethoxy phenyl hydrazone (FCCP; within 0.1-0.25 μM) in the presence of 1 mmol/L pyruvate. Finally, respiration was inhibited by addition of rotenone (0.5 μM; complex I inhibitor) to obtain extra-mitochondrial residual oxygen consumption. Data was recorded with DatLab software (Oroboros Instruments, Innsbruck, Austria), oxygen consumption at each step of the protocol was normalized to vehicle control and illustrated in histograms. For all HRR protocols, cell viability was determined after trypsinization and also after end of HRR runs via trypan blue cell staining and counting using a hemocytometer. No significant differences in cell viability between control and treated cells were observed.
# Additionally, to indirectly assess metabolic flexibility, cells were treated the same way as described, collected and subjected to a 15 min treatment of 10 mM D-glucose before being washed and injected into the respirometer; these experiments were done to assess if cells incubated in low glucose/high fat conditions for 24 h can easily switch to glucose utilization upon acute incubation with D-glucose.
# [2] = tested on: AMPK activation and mitochondrial biogenesis; assay: Immunoblotting (pAMPKα, PGC-1α) and NAO mitochondrial mass in INS-1 (832/13) cells; type: cell-based, rat; details: 25 μM AvoB, 24 h
# Description: For all ROS studies, INS-1 (832/13) cells and C2C12 myotubes were treated with or without palmitate and FAO inhibitors for 24 h in low glucose cell culture media as described for the FAO assay. After treatment, cells were trypsinized and re-suspended in PBS containing 5 μM of the fluorescent dye MitoSOX® (Molecular Probes, Invitrogen) and allowed to incubate for 5-15 minutes in a humidified atmosphere containing 5% CO2 at 37° C. Cells were then washed in PBS, placed in a 96 well plate and fluorescence was measured by flow cytometry. ROS was quantified by normalizing the mean fluorescence values of live gated cells to vehicle control. Mitochondrial membrane potential (MMP) in INS-1 (832/13) and C2C12 myotubes was measured using the cationic fluorescent dye JC-1 (Molecular Probes). […] JC-1 fluoresces green in the cytosol where it exists as a monomer, after entering the mitochondria JC-1 monomers form J aggregates and fluoresce red, thus the red/green fluorescence ratio is used to determine MMP. […] Cells were then washed in PBS, placed in a 96 well plate and fluorescence was measured by flow cytometry. MMP was quantified by normalizing the mean fluorescence values of live gated cells to vehicle control. […] Cells were treated, washed and collected as described and incubated with 0.35 μM NAO and green fluorescence was measured using flow cytometry. […]
# [3] = tested on: C2C12 myotubes; assay: Cellular ATP content in C2C12 myotubes; type: cell-based, mouse; details: 0.5 mM palmitate 24 h, AVO 25 μM, DCA 1 mM, TRI 25 μM
# Description: Total cellular ATP content was determined using the ATP bioluminescent assay kit (Calbiochem, 119107). Briefly, cells were seeded in white walled 96-well plates (1.2×10^4 cells/well for INS-1 and 2×10^4 cells/well for C2C12) and treated for 24 h (C2C12 cells were differentiated for 5 days prior to treatments whereas INS-1 cells were treated 24 h after seeding). After treatment, culture media was removed, and cells were lysed with nucleotide releasing buffer with gentle shaking for 5 min. ATP monitoring enzyme was then added to cell lysates and plates and luminescence was read in a Biotek Synergy HT spectrophotometer (Biotek; Winooski, VT).
# [4] = tested on: INS-1 (832/13) cells; assay: Cell viability (propidium iodide, flow cytometry) in INS-1 (832/13) cells; type: cell-based; details: AvoB 24 h
# Description: Quantitative analysis of cell death was evaluated by flow cytometry using propidium iodide staining (Biovision, Mountainview, CA), where specified, according to the manufacturer's protocol and as previously described^28. Viable cells were identified as PI negative (PI−).
substance,measurement,setting,value
avocatin B [AvoB],"Respiration after 10 mM glucose challenge (HRR, metabolic flexibility)","[1]; 25 μM AvoB, 0.25 mM palmitate 24 h, then 10 mM glucose 15 min, vs palmitate-only",increased basal and maximal respiration compared to the palmitate-only control
same,"Palmitate supported respiration (OCR, HRR)","[1]; 25 μM AvoB, 0.25 mM palmitate-BSA/1 mM L-carnitine, 24 h",inhibited palmitate supported basal and maximal-uncoupled respiration
same,Concentration imparting FAO inhibition relative to etomoxir,[1]; AvoB 25 μM vs etomoxir 100 μM,four-fold lower than etomoxir
same,AMPK activation (pAMPKα-Thr172),[2],independent of AMP-activated protein kinase (AMPK) activation
same,"Mitochondrial biogenesis (PGC-1α protein, NAO dye)",[2],independent
same,Total cellular ATP content,[3],restored cellular ATP content to that of control cells
same,Cell viability,[4],no effect on cell viability
